# Measurements from US20070060632A1, “Lofexidine” (TEXCONTOR ETABLISSEMENT, priority 2005, published 2007).
# “And” between values parts separate entries of the source, which are not always exact repeats. Equal values may be shown once. Where a name gives a salt, the structure may show the parent alone.
# Experiments:
# [1] = systemically (orally or by intravenous injection), especially at high doses (>600 μg per day); cited from earlier work
# [2] = system: rat model of post-operative pain; assay: Rat model of post-operative pain (hind paw incision), tactile allodynia by Electronic Von Frey; format: in vivo; conditions: for Tactile Pressure Post-treatment, Average per rat: average of 4 points of one rat; for % Inhibition: Δ Treatment/Δ Blank × 100% / Δ Treatment: Tactile Pressure [(Post-Treatment) − (Pre-Treatment)]: group; for % Inh per rat: individual rat; for Tactile Pressure Post-Treatment: single points (4 per rat), 24 hours after surgery
# Method: Lofexidine at 0.00032 and 0.0032 mg/rat injected intrathecally (ITH) was evaluated for possible analgesic activity in a rat model of post-operative pain which was induced with an incision made on the plantar surface of the hind paw. To measure tactile allodynia, a supertip with a flattened surface connected to Electrovonfrey Aesthethiometer (IITC, USA) was applied slowly and gently onto the plantar surface of the hind paw, where 4 points around the incision were identified. The endpoint is the mean withdrawal threshold values (gm) in response to von Frey filament, serving as a measure of analgesic activity. Percent inhibition was calculated as Δ treatment values (change in threshold pressure caused by treatment) relative to Δ blank values (change in threshold value caused by incision). Lofexidine.HCl was dissolved in 0.9% NaCl and at doses of 0.00032 and 0.0032 mg/rat was administered intrathecally (ITH). The dosing volume was 10 μl/rat. Male Wistar derived rats weighing 270±30 g provided by BioLasco Taiwan (under Charles River Laboratories Technology licensee) were used. Space allocation for animals was 45×23×15 cm for 6 rats. Animals were housed in APEC^R cages. All animals were maintained in a controlled temperature (22-24° C.) and humidity (60%-80%) environment with 12 hours light dark cycles for at least one week in MDS Pharma Services-Taiwan Laboratory prior to use. Free access to standard lab chow (Lab Diet, Rodent Diet, PMI Nutrition International, USA) and tap water was granted. All aspects of this work including housing, experimentation and disposal of animals were performed in general accordance with the Guide for the Care and Use of Laboratory Animals (National Academy Press, Washington, D. C, 1996). Groups of 5 male Wistar rats weighing 270±30 g were used. Prior to surgery, individual animals were acclimatised to the testing environment and baseline responses to Electronic Von Frey Aesthesiometer (2290CE Electrovonfrey®, IITC, USA) with a rigid tip were performed (Pre-Incision). Under pentobarbital (50 mg/kg, 5 ml/kg, i.p.) anesthesia, the left hind paw was aseptically prepared. A 1-cm longitudinal incision was made with a number 11 blade, through the skin and fascia of the plantar aspect of the foot, starting 0.5 cm from the proximal edge of the heel and extending toward the toes. The plantaris muscle was elevated and incised longitudinally, followed by crushing with a mosquito hemostat for 20 seconds. The muscle origin and insertion remained intact After hemostasis with gentle pressure, the skin and fascia were then closed as one layer using 4-0 silk suture. Evaluation for pain was performed at 24 hours postoperatively between 08:00 and 16:00 h. Each animal was monitored at 15, 30, 60 and 120 minutes after intrathecal administration of lofexidine.HCl. The rats were placed under inverted plexiglas cages on a wire mesh rack and a brief observation of general behavior post-injection was made. The rigid tip part of the Electronic Von Frey Aesthesiometer was applied perpendicularly from underneath the mesh floor to the four points around the wound surface of the animal with slow upward force against the paw. A positive response to tactile pressure was recorded if the paw was sharply withdrawn; ambulation was considered an ambiguous response, and in such cases, the stimulus was reapplied. Mean values from 4 points for each rat and from 5 rats in each group were calculated. Percent inhibition due to treatment relative to pre-treatment pain response was calculated according to the formula: Tactile Pressure [(Post-Treatment)−(Pre-Treatment)]/[(Pre-Incision)−(Pre-Treatment)]×100%. Inhibition by 50% or more (≧50%) is considered significant analgesic effect. Unpaired Student's t test is applied for comparison of the % inhibition values between test substance-and vehicle-treated groups. Significance is considered at P<0.05 level
# chronic pelvic pain = conditions: given orally, dosages of up to 1200 μg per day; cited from earlier work
# [3] = system: nerve ligation-induced chronic pain model in rats; assay: Nerve ligation-induced chronic (neuropathic) pain model in rats, mechanical allodynia by Electronic Von Frey; format: in vivo, rat; conditions: for Tactile Pressure Post-Treatment, Average / Tactile Pressure Δ Treatment, Average: average of 5 rats; for Tactile Pressure Post-Treatment / Tactile Pressure Δ Treatment: individual rat
# Method: Lofexidine was evaluated for possible analgesic activity in neuropathic pain using a nerve ligation-induced chronic pain model in rats. Lofexidine HCl was administered intrathecally (ITH) at 3.2 and 10 μg/animal and analgesia was measured at 15, 30, 60 and 120 minutes post-dosing using an Electronic Von Frey Aesthesiometer (IITC, USA) with a #12 supertip. A 50% or greater (≧50%) inhibition relative to blank indicates possible analgesic activity. Lofexidine HCl at doses of 3.2 and 10 μg/animal were administered intrathecally. Sterile Saline (obtained from Sintong Biotech Company, Taiwan) was used as vehicle and dosing volume was 10 μl/animal. Male Wistar rats weighing 160 to 200 g were used. Under pentobarbital (50 mg/kg, 5 ml/kg, i.p.) anesthesia, the sciatic nerve was exposed at mid-thigh level. Three ligatures (4-0 silk suture), about 1 mm apart, were loosely tied around the nerve. The animals were then housed individually in cages with soft bedding for 7 days before testing for mechanical allodynia. On the test day, rats were placed under inverted plexiglas cages on a wire mesh rack and allowed to acclimatise for 20 to 30 minutes. Allodynia was evaluated by responsiveness to a #12 Supertip® (IITC, USA) applied beneath the mesh floor perpendicular to the central plantar surface of the left hind paw. The tip was gradually applied with sufficient force to cause slight buckling of the filament against the paw. A positive response to the applied tactile pressure, noted by sharp withdrawal of the paw, was recorded automatically by an Electronic Von Frey Aesthesiometer (2290CE Electrovonfrey®, IITC, USA). The endpoint is the withdrawal threshold (gm) to von Frey filament, serving as a measure of analgesic activity. Rats were pre-selected (for presence of allodynia) for experimentation only if the withdrawal threshold 7 days after nerve ligation (pre-treatment) was reduced by 10 grams of force relative to the response of the individual paw before nerve ligation (pre-ligation). Test substance or vehicle was administered intrathecally (3.2 μg and 10 μg/animal) to groups of 5 animals and the level of allodynia was again determined (at 15, 30, 60 and 120 minutes post-treatment). Allodynia is calculated as follows: % Inhibition=ΔTreatment/ΔBlank×100%; where Δ Treatment is Tactile Pressure [(Post-Treatment)−(Pre-Treatment)] and Δ Blank is Tactile Pressure [(Pre-Ligation)−(Pre-Treatment)]. A 50 percent or greater (≧50%) inhibition relative to blank indicates possible analgesic activity.
smiles,measurement,setting,value
CC(Oc1c(Cl)cccc1Cl)C1=NCCN1 (centres unmarked) [Lofexidine HCl],common symptoms associated with systemic use,[1],"drowsiness, sedation and blood pressure and heart rate increases"
same,"Tactile Pressure Post-treatment, Average per rat","[2]; 0.00032 mg/rat ITH, 15 min.",18.0 g
same,% Inhibition: Δ Treatment/Δ Blank × 100%,"[2]; 0.00032 mg/rat ITH, 15 min.",2.6%
same,Δ Treatment: Tactile Pressure [(Post-Treatment) − (Pre-Treatment)],"[2]; 0.00032 mg/rat ITH, 15 min.",0.8 g
same,% Inh per rat,"[2]; 0.00032 mg/rat ITH, 15 min.",−7.4% and 2.5% and −5.6% and 8.0%
same,% Inhibition: Δ Treatment/Δ Blank × 100%,"[2]; 0.00032 mg/rat ITH, 30 min.",7.6%
same,Δ Treatment: Tactile Pressure [(Post-Treatment) − (Pre-Treatment)],"[2]; 0.00032 mg/rat ITH, 30 min.",2.3 g
same,% Inh per rat,"[2]; 0.00032 mg/rat ITH, 30 min.",−3.2% and 4.1%
same,Tactile Pressure Post-Treatment,"[2]; 0.00032 mg/rat ITH, 30 min.",26.0 g and 20.0 g
same,"Tactile Pressure Post-treatment, Average per rat","[2]; 0.00032 mg/rat ITH, 60 min.",22.0 g
same,% Inhibition: Δ Treatment/Δ Blank × 100%,"[2]; 0.00032 mg/rat ITH, 60 min.",4.3%
same,Δ Treatment: Tactile Pressure [(Post-Treatment) − (Pre-Treatment)],"[2]; 0.00032 mg/rat ITH, 60 min.",1.3 g
same,% Inh per rat,"[2]; 0.00032 mg/rat ITH, 60 min.",−0.7% and 3.0% and 0.8% and 7.4%
same,Tactile Pressure Post-Treatment,"[2]; 0.00032 mg/rat ITH, 60 min.",22.0 g
same,% Inhibition: Δ Treatment/Δ Blank × 100%,"[2]; 0.00032 mg/rat ITH, 120 min.",0.3%
same,Δ Treatment: Tactile Pressure [(Post-Treatment) − (Pre-Treatment)],"[2]; 0.00032 mg/rat ITH, 120 min.",0.1 g
same,% Inh per rat,"[2]; 0.00032 mg/rat ITH, 120 min.",−2.5% and −7.4% and 2.5% and 4.1% and 4.7%
same,Tactile Pressure Post-Treatment,"[2]; 0.00032 mg/rat ITH, 120 min.",21.0 g (2×) and 22.0 g and 18.0 g
same,"Tactile Pressure Post-treatment, Average per rat","[2]; 0.0032 mg/rat ITH, 15 min.",46.0 g
same,Tactile Pressure Post-Treatment,"[2]; 0.0032 mg/rat ITH, 15 min.",43.0 g and 60.0 g
same,% Inh per rat,"[2]; 0.0032 mg/rat ITH, 30 min.",47.0%
same,Tactile Pressure Post-Treatment,"[2]; 0.0032 mg/rat ITH, 30 min.",44.0 g
same,Δ Treatment: Tactile Pressure [(Post-Treatment) − (Pre-Treatment)],"[2]; 0.0032 mg/rat ITH, 60 min.",8.9 g
same,% Inh per rat,"[2]; 0.0032 mg/rat ITH, 60 min.",−3.5% and 0.9%
same,Tactile Pressure Post-Treatment,"[2]; 0.0032 mg/rat ITH, 60 min.",29.0 g
same,"Tactile Pressure Post-treatment, Average per rat","[2]; 0.0032 mg/rat ITH, 120 min.",22.0 g
same,% Inhibition: Δ Treatment/Δ Blank × 100%,"[2]; 0.0032 mg/rat ITH, 120 min.",5.5%
same,Δ Treatment: Tactile Pressure [(Post-Treatment) − (Pre-Treatment)],"[2]; 0.0032 mg/rat ITH, 120 min.",1.8 g
same,% Inh per rat,"[2]; 0.0032 mg/rat ITH, 120 min.",1.2% and 5.8% and −2.5% and −8.2%
same,effectiveness in treatment of chronic pelvic pain,chronic pelvic pain,not effective
same,"Tactile Pressure Post-Treatment, Average","[3]; 3.2 μg/animal ITH, 15 Minutes",12.5 g
same,"Tactile Pressure Δ Treatment, Average","[3]; 3.2 μg/animal ITH, 15 Minutes",1.3 g
same,Tactile Pressure Post-Treatment,"[3]; 3.2 μg/animal ITH, 15 Minutes",8.9 g and 5.8 g
same,Tactile Pressure Δ Treatment,"[3]; 3.2 μg/animal ITH, 15 Minutes",-1.8 g and -5.2 g and 8.5 g and 6.3 g and -1.1 g
same,"Tactile Pressure Δ Treatment, Average","[3]; 3.2 μg/animal ITH, 30 Minutes",-1.1 g
same,Tactile Pressure Post-Treatment,"[3]; 3.2 μg/animal ITH, 30 Minutes",7.4 g and 8.5 g and 10.0 g
same,Tactile Pressure Δ Treatment,"[3]; 3.2 μg/animal ITH, 30 Minutes",-0.5 g and -3.8 g and -0.6 g and 1.4 g and -2.0 g
same,"Tactile Pressure Post-Treatment, Average","[3]; 3.2 μg/animal ITH, 60 Minutes",9.3 g
same,"Tactile Pressure Δ Treatment, Average","[3]; 3.2 μg/animal ITH, 60 Minutes",-1.8 g
same,Tactile Pressure Post-Treatment,"[3]; 3.2 μg/animal ITH, 60 Minutes",8.7 g and 7.5 g and 6.5 g
same,Tactile Pressure Δ Treatment,"[3]; 3.2 μg/animal ITH, 60 Minutes",-2.0 g and -3.7 g and -2.1 g and 4.2 g and -5.5 g
same,"Tactile Pressure Post-Treatment, Average","[3]; 3.2 μg/animal ITH, 120 Minutes",9.2 g
same,"Tactile Pressure Δ Treatment, Average","[3]; 3.2 μg/animal ITH, 120 Minutes",-2.0 g
same,Tactile Pressure Post-Treatment,"[3]; 3.2 μg/animal ITH, 120 Minutes",8.6 g and 6.1 g and 7.9 g
same,Tactile Pressure Δ Treatment,"[3]; 3.2 μg/animal ITH, 120 Minutes",-2.1 g and -5.1 g and -2.4 g and 0.8 g and -1.2 g
same,"Tactile Pressure Δ Treatment, Average","[3]; 10 μg/animal ITH, 15 Minutes",13.0 g
same,Tactile Pressure Post-Treatment,"[3]; 10 μg/animal ITH, 15 Minutes",>36.8 g
same,Tactile Pressure Δ Treatment,"[3]; 10 μg/animal ITH, 15 Minutes",1.5 g and 11.0 g
same,Tactile Pressure Post-Treatment,"[3]; 10 μg/animal ITH, 30 Minutes",7.0 g and >31.5 g and >35.5 g
same,Tactile Pressure Δ Treatment,"[3]; 10 μg/animal ITH, 30 Minutes",-3.9 g and 4.3 g
same,Tactile Pressure Post-Treatment,"[3]; 10 μg/animal ITH, 60 Minutes",8.9 g
same,Tactile Pressure Δ Treatment,"[3]; 10 μg/animal ITH, 60 Minutes",8.4 g and 4.2 g and -2.4 g
same,"Tactile Pressure Post-Treatment, Average","[3]; 10 μg/animal ITH, 120 Minutes",11.0 g
same,"Tactile Pressure Δ Treatment, Average","[3]; 10 μg/animal ITH, 120 Minutes",0.6 g
same,Tactile Pressure Post-Treatment,"[3]; 10 μg/animal ITH, 120 Minutes",6.4 g
same,Tactile Pressure Δ Treatment,"[3]; 10 μg/animal ITH, 120 Minutes",1.4 g and -0.1 g and 5.2 g and 1.3 g and -4.9 g
same,time of peak analgesic activity post-dosing,[3]; 10 μg/animal intrathecal,30 min
same,analgesic activity at 120 minutes post-dosing,"[3]; 10 μg/animal intrathecal, 120 minutes post-dosing",no longer evident
CC(Oc1c(Cl)cccc1Cl)C1=NCCN1 (centres unmarked) [Lofexidine],analgesic effect against post-operative pain,[2]; 0.00032 mg/rat ITH,slight analgesic effect
same,analgesic effect against post-operative pain,"[2]; 0.0032 mg/rat intrathecal, 15 and 30 minute time points, compared with Δ blank values",demonstrated analgesic effect
same,"analgesic activity, neuropathic pain",[3]; 3.2 μg/animal intrathecal,low levels of analgesic activity
same,"analgesic activity, neuropathic pain","[3]; 10 μg/animal intrathecal, 30 minutes post-injection",significant analgesic activity
